Tests used:
[1] = target: T1, 3-oxo-5-alpha-steroid 4-dehydrogenase 2 (Homo sapiens, UniProt P31213); assay: Compound was tested for inhibitory activity against human prostatic Steroid 5-alpha-reductase; conditions: read-out: Ki app
T1 sequence (P31213 whole entry): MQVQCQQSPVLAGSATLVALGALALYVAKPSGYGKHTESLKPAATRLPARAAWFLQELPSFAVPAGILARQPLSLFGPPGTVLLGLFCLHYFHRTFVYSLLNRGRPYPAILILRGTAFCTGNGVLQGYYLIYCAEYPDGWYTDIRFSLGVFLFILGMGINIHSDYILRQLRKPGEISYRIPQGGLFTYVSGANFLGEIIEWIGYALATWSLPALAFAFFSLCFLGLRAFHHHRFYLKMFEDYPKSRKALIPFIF

[2] = Compound was tested for in vitro inhibitory activity against cynomolgus monkey Steroid 5-alpha-reductase; design: species or system Cercopithecidae
[3] = target: T1, 3-oxo-5-alpha-steroid 4-dehydrogenase 2; assay: Compound was tested for inhibitory activity against human prostatic Steroid 5-alpha-reductase at 5 uM concentration; NS - No significant inhibition.

Ki [1] [µM]	Ki [2] [µM]	Ki app [3]	Compound
0.05	< 0.001		CC(C)N(C(=O)[C@H]1CCC2C3CC[C@H]4C=C([N+](=O)[O-])CC[C@]4(C)C3CC[C@@]21C)C(C)C (stereo partly specified)
		Not Active	CC(C)N(C(=O)[C@H]1CC[C@H]2[C@@H]3CCc4cc([N+](=O)[O-])ccc4[C@H]3CC[C@]12C)C(C)C
	0.004		CC(C)N(C(=O)[C@H]1CCC2C3CC=C4C=C(C(=O)O)CC[C@]4(C)C3CC[C@@]21C)C(C)C (stereo partly specified)
0.59			CC(C)N(C(=O)[C@H]1CCC2C3CC=C4C=C([N+](=O)[O-])CC[C@]4(C)C3CC[C@@]21C)C(C)C (stereo partly specified)

Compound	Ki [1] [µM]	Ki [2] [µM]	Ki app [3]
CC(C)N(C(=O)[C@H]1CC[C@H]2[C@@H]3CCc4cc(C(=O)O)ccc4[C@H]3CC[C@]12C)C(C)C	0.02		

Source: ChEMBL document CHEMBL1125939, “Inhibition of steroid 5-reductase by 3-nitrosteroids: synthesis, mechanism of inhibition, and in vivo activity” (Bioorg Med Chem Lett, 1991)
